Measurements: publication doi:10.1101/2020.07.24.219071v1 (biorxiv, 2020)

Assays:
Test in all cases: MicroScale Thermophoresis
[1] = biological target: Glutamate receptor 2 (GRIA2) (Homo sapiens, UniProt P42262); assay type: binding
[2] = biological target: Hematopoietic prostaglandin D synthase (HPGDS) (Homo sapiens, UniProt O60760); assay type: binding
[3] = biological target: T1, Fatty acid-binding protein 4 (FABP4) (Homo sapiens, UniProt P15090)
T1 sequence (P15090 2-132): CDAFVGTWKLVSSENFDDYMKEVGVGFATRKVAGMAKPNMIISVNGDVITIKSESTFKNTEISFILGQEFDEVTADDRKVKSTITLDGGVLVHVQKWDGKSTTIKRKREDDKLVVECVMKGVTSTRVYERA

[4] = biological target: Nicotinamide/nicotinic acid mononucleotide adenylyltransferase 1 (NMNAT1) (Homo sapiens, UniProt Q9HAN9); assay type: binding
Chain of Nicotinamide/nicotinic acid mononucleotide adenylyltransferase 1 (NMNAT1) (Q9HAN9 whole entry): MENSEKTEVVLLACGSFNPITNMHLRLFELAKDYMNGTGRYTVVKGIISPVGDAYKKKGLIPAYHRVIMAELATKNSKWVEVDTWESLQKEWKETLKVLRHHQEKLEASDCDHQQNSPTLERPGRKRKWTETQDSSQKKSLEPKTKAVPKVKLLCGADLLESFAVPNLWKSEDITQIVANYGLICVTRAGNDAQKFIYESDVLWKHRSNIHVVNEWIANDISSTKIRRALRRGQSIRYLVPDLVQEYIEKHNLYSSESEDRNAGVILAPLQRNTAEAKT

Menin = biological target: T2, Menin (Homo sapiens, UniProt O00255); assay type: binding
T2 sequence (O00255 1-610): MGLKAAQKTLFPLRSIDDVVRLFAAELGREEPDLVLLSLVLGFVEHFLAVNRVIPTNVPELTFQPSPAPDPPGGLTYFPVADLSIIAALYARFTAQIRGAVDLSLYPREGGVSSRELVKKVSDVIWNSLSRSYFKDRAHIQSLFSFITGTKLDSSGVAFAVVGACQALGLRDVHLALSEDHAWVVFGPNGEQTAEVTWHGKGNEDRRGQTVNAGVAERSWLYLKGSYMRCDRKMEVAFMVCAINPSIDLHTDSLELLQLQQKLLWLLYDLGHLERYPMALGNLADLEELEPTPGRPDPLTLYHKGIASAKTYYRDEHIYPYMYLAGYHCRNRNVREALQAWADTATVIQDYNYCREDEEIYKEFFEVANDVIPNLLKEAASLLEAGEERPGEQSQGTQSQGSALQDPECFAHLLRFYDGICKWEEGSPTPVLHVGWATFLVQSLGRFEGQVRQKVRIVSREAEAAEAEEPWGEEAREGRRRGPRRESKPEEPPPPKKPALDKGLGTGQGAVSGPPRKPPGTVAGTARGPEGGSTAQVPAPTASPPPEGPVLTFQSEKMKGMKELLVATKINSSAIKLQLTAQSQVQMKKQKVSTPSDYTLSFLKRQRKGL

Chain of Hematopoietic prostaglandin D synthase (HPGDS) (O60760 whole entry): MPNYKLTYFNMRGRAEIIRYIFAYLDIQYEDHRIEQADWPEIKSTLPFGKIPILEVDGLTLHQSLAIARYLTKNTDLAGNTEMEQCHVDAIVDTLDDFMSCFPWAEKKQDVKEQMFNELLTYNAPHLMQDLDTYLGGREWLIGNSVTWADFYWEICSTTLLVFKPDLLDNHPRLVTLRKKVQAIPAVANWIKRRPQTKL
Chain of Glutamate receptor 2 (GRIA2) (P42262 25-543 limits assumed): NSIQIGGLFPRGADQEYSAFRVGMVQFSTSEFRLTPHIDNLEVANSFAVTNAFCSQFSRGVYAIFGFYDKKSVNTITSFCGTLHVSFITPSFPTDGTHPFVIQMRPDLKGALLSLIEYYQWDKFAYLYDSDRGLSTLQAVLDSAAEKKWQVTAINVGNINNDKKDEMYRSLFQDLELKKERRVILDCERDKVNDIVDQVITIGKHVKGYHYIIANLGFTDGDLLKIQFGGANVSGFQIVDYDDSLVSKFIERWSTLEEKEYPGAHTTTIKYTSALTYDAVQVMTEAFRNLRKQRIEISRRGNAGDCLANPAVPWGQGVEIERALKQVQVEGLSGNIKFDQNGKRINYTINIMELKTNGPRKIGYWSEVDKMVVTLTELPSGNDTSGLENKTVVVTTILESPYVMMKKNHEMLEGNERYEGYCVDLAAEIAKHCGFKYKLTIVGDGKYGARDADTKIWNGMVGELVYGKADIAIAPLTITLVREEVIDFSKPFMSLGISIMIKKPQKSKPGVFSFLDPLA

SMILES: C[S+]([O-])c1ccc(-c2nc(-c3ccncc3)c(-c3ccc(F)cc3)[nH]2)cc1 (centres unmarked) [SB203580]
- Kd [1]: > 500 µM
- Kd [2]: 30.9 ± 4.54 µM
- Kd [3]: > 500 µM
- Kd [4]: > 500 µM
- Kd (Menin): > 500 µM
